Assay results from patent publication US20210085699A1, “COMBINATION THERAPIES FOR TREATING CANCERS” (priority 2018, published 2021).

Assays:
[1] = test system: spontaneously arising lymphomas; experiment: 2DG in drinking water, spontaneous lymphomas of SJL.CD8a−/− mice; assay type: in vivo, mouse
Source text: To test the extent to which inhibition of glycolysis by 2DG alleviated these spontaneously arising lymphomas, a cohort of SJL.CD8a−/− female mice were aged to […] of age and were monitored for signs of lymphoma development. Visible growth was most evident in cervical lymph nodes and in some cases in spleens (indicated by arrows, FIG. 1A). Once tumors were sufficiently large to palpate, mice were placed on water with 6 g/L of dissolved 2DG provided ad libitum and monitored weekly for tumor reduction. […] Photographs of the tumors were taken weekly to document disease regression, and the time points, in weeks, at which the tumors visibly shrank or, later, reemerged, were recorded.
Female SJL.CD8a−/− mice were obtained from the Jackson Laboratory. Mice were aged and checked weekly for splenic or lymphatic tumors. […] Tumors were monitored and photographed weekly for signs of disease regression or progression.
SJL.CD8a−/− female mice were aged and monitored for signs of tumor development weekly after reaching 6 months of age. Tumors were found on mice in between 7 to 12 months of age. Once tumors had reached a clearly visible size, the mice were given water with 6 g/L of dissolved 2DG provided ad libitum. This concentration of 2DG in the water supplied the mice with a daily dose of approximately 960 mg/kg of 2DG. Mice were monitored weekly to determine changes in tumor mass. Photographs of the tumors were taken weekly to gauge whether the tumor was shrinking, expanding, or maintaining their size and to provide an estimate of the overall health of the mice. Treatments lasted for 11 weeks or until the tumors returned and mice became too sick to continue in the study. The treatment of one mouse was carried out to week 16 to determine what, if any, side effects would occur with prolonged 2DG exposure. […] Dates on which tumor shrinkage was observed, as well as dates on which tumor reemergence was observed, were recorded.

thymic lymphomas = experiment: 2DG I.P. in Trp53−/− mouse model of thymic lymphoma; assay type: in vivo
Description: Next, a more homogeneous and acute spontaneously arising lymphoma was tested. In addition, the extent to which 2DG could affect a purely T-cell lymphoma was tested. To meet all of these criteria, a classic mouse model of T-cell cancer, the p53-deficient mouse (31) was used. […] To test the effect of 2DG on these thymic lymphomas, […].

TM00921 = experiment: PDX lung carcinoma TM00921 xenografted in NSG mice, 2DG vs glucose; assay type: in vivo, human; conditions: 200 μL of 600 mM 2DG I.P. three times weekly, 4 weeks, glycolysis-dependent PDX
Source text: (§1) The effects of 2DG in human lung carcinoma PDX (patient-derived xenograft) models were eventuated. While it is understood that 2DG primarily affects glycolysis, studies have shown that 2DG can interfere with other systems, such as the cell cycle, independently of its effects on metabolism (8, 32, 33). Changes in the cell cycle would affect the proliferation of cancer cells, and would ultimately influence tumor growth. To test whether 2DG affects glycolysis independently of proliferation, two PDX human lung carcinomas (TM00244 and TM00921) with similar growth kinetics (FIG. 2A) but differing in the use of glycolytic pathways (Table 1) were tested.
(§2) Tumors from these two carcinomas were xenografted into immunodeficient NOD.Scid.IL2R gamma null (NSG™) mice, and, after tumors of a measurable size (>50 mm^3) were observed, mice of each model were treated with 200 μL of either 600 mM 2DG or glucose three times weekly via I.P. injection.
(§3) Patient-derived xenograft (PDX) tumors were obtained from the JAX PDX Resource. Tumor fragments were minced separately and xenografted subcutaneously in an NSG mouse to establish P1. Upon growth of the tumor fragment, the tumor was harvested, minced, and xenografted in multiple mice to establish P2 mice. All experiments were conducted on P2 or higher mice that arose from engraftment from one of multiple tumor fragments.

TM00244 = experiment: PDX lung carcinoma TM00244 xenografted in NSG mice, 2DG vs glucose; assay type: in vivo, human; conditions: 200 μL of 600 mM 2DG I.P. three times weekly, 4 weeks, glycolysis-independent PDX
Source text: as §1, §2, §3

MEC1 cells [2] = experiment: MEC1 xenograft in NRG mice, tumor burden by human CD19+ cells (flow cytometry); assay type: in vivo
Description: (§4) To test that hypothesis, the two cell lines were tested for 2DG sensitivity in vivo: immunodeficient NOD.Cg-Rag1^tm1MomIl2rg^tm1Wjl/SzJ (NRG™) mice were xenografted with either MEC1 or CCRF-SB cells, and the mice were then treated with 200 μL of 600 mM 2DG or glucose I.P. three times per week for two weeks. Both MEC1 and CCRF-SB cells migrate to the spleen and bone marrow, and since these mice […] CD19+ B-cells, the tumor burden can be measured terminally in these organs by anti-human CD19 staining via flow cytometry after euthanasia at the end of the treatment period.
Because DIDS was effective in reducing numbers of MEC1 B-cells ex vivo, its effectiveness was tested in vivo. […] MEC1 cells were xenografted into immunodeficient NRG™ mice for two weeks, and mice were then treated either with DIDS at 50 mg/kg or with a 0.1 M potassium bicarbonate/PBS vehicle, once per week for an additional two weeks. NRG™ mice were used because they were deficient in CD19 cells, allowing quantification of MEC1 B-cells by staining spleen cells for human CD19, as the spleen is a homing organ for MEC1 B-cells, all of which are positive for CD19.
Mice were treated I.P. three times weekly for two weeks. 1) mice were dosed I.P. with 10 mg/kg DIDS, a fifth of the dose required to elicit an effect in vivo (FIG. 4D); 2) mice were treated I.P. with 220 mg/kg of 2DG or glucose; a third of the dose of 2DG required for an effect (FIG. 3C); 3) mice were treated with both DIDS and 2DG, at the same doses used in the first two groups; 4) as a positive control, mice were treated with fludarabine, a compound frequently used to treat CLL, at 35 mg/kg, a dose commonly used to elicit an effect; and 5) as a negative control, mice were treated with vehicle consisting of glucose in PBS (41). Following the 2-week treatment period, bone marrow and spleens were assessed for tumor burden, by determining the percentages of human CD19-positive cells via flow cytometry (FIG. 5C).
(§5) Human cancer cell lines were xenografted into NRG mice in the following way: Cells grown in flasks were given fresh media the night before xenograftment and seeded at 10^6 cells per mL. The next day, the cells were washed twice with DPBS without calcium or magnesium and resuspended to 1-2×10^8 cells per mL of DPBS at room temperature and immediately injected via tail vein at 100 μL per mouse. The cells were given 7-10 days to fully xenograft, after which tumor load in the blood was assessed via flow cytometry (FACSCaliber II) for human CD19+ cells (Antibody cat no. 555413, BD Parmingen). Mice with similar tumor loads were assigned to different treatment groups to decrease bias and ensure more even tumor load across treatments. Mice were treated as described in the Results section for two weeks unless otherwise indicated. Upon euthanasia, the spleen and the bone marrow were harvested and stained for human CD19, and the cells were measured by flow cytometry on the FACSCaliber II. Analysis of the flow data was done by Flowjo version 8.8.7 (BD Pharmingen).
Xenografts were done as follows: NOD. Rag1−/− IL-2rg−/− (NRG) mice obtained from the Jackson Laboratory were xenografted for one to two weeks with Non Hogdkin's Leukemia CCRFSB, Chronic lymphocytic leukemia MEC1 cells or MEC1 cells carrying the luciferase gene (MEC1_LUC). Mice were then randomly assigned to treatment or vehicle cohort, and treated for two weeks.

CCRF-SB cells = experiment: CCRF-SB xenograft in NRG mice, tumor burden by human CD19+ cells; assay type: in vivo; conditions: 200 μL of 600 mM 2DG I.P. three times per week for two weeks, vs glucose
Description: as §4
as §5, with “Mice with similar tumor loads were assigned to different treatment groups to decrease bias and ensure more even tumor load across treatments. Mice were treated as described in the Results section for two weeks unless otherwise indicated.” left out, “Analysis of the flow data was done by Flowjo version 8.8.7 (BD Pharmingen).” left out

MEC1 cells [3] = experiment: Ex vivo growth/survival of MEC1 cells; assay type: cell-based, human; conditions: 2DG 0.2 mM alone, 48 hours
[4] = one mouse, 2DG 6 g/L in water carried out to week 16
[5] = 200 μL of 600 mM 2DG I.P. three times per week for two weeks, vs glucose

Compound: OCC1O[C@H](O)C[C@@H](O)[C@@H]1O (mixture of isomers) [2DG, 2-deoxy-D-glucose]
- adverse side effects by gross observation (weight loss, lethargy, lack of grooming) ([1]; 2DG 6 g/L in drinking water, at any time during treatment): no adverse side effects of this treatment were observed
- time within which tumors returned ([1]; 2DG 6 g/L in drinking water, despite continuation of treatment): 5-11 weeks
- mice of the six responders in which tumors returned ([1]; 2DG 6 g/L in drinking water, treatment continued): four
- treatment time at which tumor regression was evident ([1]; 2DG 6 g/L in drinking water, N=7): two to three
- appearance of greatly enlarged spleen (representative mouse) ([1]; FIG. 1A legend, 2DG 6 g/L in drinking water): returned to normal appearance after two weeks of treatment
- fraction of mice with tumor resurgence ([1]; FIG. 1B legend, after 5-11 weeks of 2DG treatment, N=7): approximately ¾
- adverse effects with prolonged 2DG exposure [1, 4]: no adverse effects were noted
- tumor return under prolonged treatment [1, 4]: This tumor never returned
- duration of inactivity upon injection (thymic lymphomas; 2DG 670 mg/kg I.P.): 10 to 60 min
- protection from developing neoplasms (survival curve) (thymic lymphomas; 2DG 670 mg/kg I.P. three times weekly from 14 weeks of age for 10 weeks, vs glucose): significantly protected from developing neoplasms
- weight gain (thymic lymphomas; 2DG 670 mg/kg I.P. three times weekly, vs glucose-treated mice): lower weight gain compared to glucose-treated mice, although the difference did not achieve significance
- tumor volume (TM00921): significantly smaller tumor volume
- tumor size (TM00244): no difference in tumor size
- tumor burden (% hCD19+) in bone marrow (MEC1 cells [2]; 2DG alone 220 mg/kg I.P. three times weekly for two weeks): elicited as much effect as the combination treatment
- tumor burden (human CD19+ cells) in bone marrow (MEC1 cells [2]; [5]): significant reductions in numbers
- tumor burden (human CD19+ cells) in spleen, sensitivity to 2DG (MEC1 cells [2]; [5]): those in the spleen did not
- tumor burden (human CD19+ cells) in spleens or bone marrow (CCRF-SB cells): no significant response to 2DG
- effect on MEC1 cell numbers (MEC1 cells [3]): does not have an effect on its own
